Laboratory results: article PMC9569529, “Safe and Efficient Sigma1 Ligand: A Potential Drug Candidate for Multiple Sclerosis” (International Journal of Molecular Sciences, 2022)
Values after ≈ are worked out from the molar mass of the structure shown. Where two headings read alike, the source gives them in different places.

How the values were obtained:
[1] = Microsomal stability in mouse liver microsomes; type: in vitro ADME; details: mLM; for Compound Remaining (1 h, %): 10 µM; for half-life at 10 µM / microsomal CLint at 10 µM: mouse, liver microsomes
Procedure: Metabolic stability analysis (mouse and human liver microsomes) was performed by Eurofins Cerep (Poitiers, France) at 10 µM as described in [55]. Results were obtained at 15, 30, 45 and 60 min. Results were expressed as percent of the parent compound remaining, and calculated by comparing the peak area of the compound at the time point relative to that at time 0. The half-life (t1/2) and the apparent intrinsic clearance (CLint) were evaluated.

[2] = Solubility, shake-flask method; type: physicochemical; details: thermodynamic from solid
Procedure: Standardized in vitro ADME experiments were performed by Eurofins Cerep (Poitiers, France). Solubility assays were performed in PBS at pH 7.4, but also in simulated gastric fluid (SGF) and intestinal fluid (SIF), through the classical shake-flask method according to Lipinski et al. using HPLC-UV/VIS technology. Results were expressed in µM.

[3] = target: OATP1B3 (Homo sapiens, UniProt Q9NPD5); assay: Drug transporter inhibition (SLC family); type: in vitro ADME; details: transporter-overexpressing cell lines, read-out: Drug transporters inhibition OATP1B3
Procedure: (§1) The compound was classically evaluated at 10 µM for all the ADME analyses. Bidirectional permeability (apical A to basolateral B pH 6.5/7.4 and basolateral B to apical A pH 7.4/6.5) was assessed in the epithelial colorectal adenocarcinoma cell line (Caco-2 cell line). Results were expressed as × 10^−6cm/s (Papp) and as % recovery. Efflux ratio, i.e., Papp(B-A)/Papp(A-B), was calculated. Plasma protein binding was analyzed by HPLC-MS/MS after 4-h incubation at 37 °C, as described by Banker et al.. Concentration was evaluated by LC/MS-MS. CYP inhibition was performed in human liver microsomes as described in [61]. Analysis of the respective metabolites. was performed by HPLC-MS/MS. Transporter inhibition analysis was also performed in overexpressing cell lines. Respective metabolites for each specific transporter substrate were analyzed by fluorometry or scintillation counting and % inhibition of control values were calculated. P-glycoprotein transporter substrate assessment was performed by bidirectional permeability analysis (apical A to basolateral B pH 7.4/7.4 and basolateral B to apical A pH 7.4/7.4) in the Caco-2 cell line with and without verapamil, as described in [59]. Results were expressed as ×10^−6 cm/s (Papp) and as % recovery. The efflux ratio, i.e., Papp(B-A)/Papp(A-B), was calculated. CYP450 induction characterization was performed on human hepatocytes. The mRNA levels of 7 different CYPs were analyzed by qPCR, as described in [72]. The compound was evaluated at 1, 10 and 100 µM. Fold-induction values were determined and compared to cut-off values, as defined for each CYP isozyme in each hepatocyte lot.

[4] = target: ABST (Homo sapiens, UniProt Q12908); assay: Drug transporter inhibition (SLC family); type: in vitro ADME; details: read-out: Drug transporters inhibition ABST
Chain of ABST (Q12908 whole entry): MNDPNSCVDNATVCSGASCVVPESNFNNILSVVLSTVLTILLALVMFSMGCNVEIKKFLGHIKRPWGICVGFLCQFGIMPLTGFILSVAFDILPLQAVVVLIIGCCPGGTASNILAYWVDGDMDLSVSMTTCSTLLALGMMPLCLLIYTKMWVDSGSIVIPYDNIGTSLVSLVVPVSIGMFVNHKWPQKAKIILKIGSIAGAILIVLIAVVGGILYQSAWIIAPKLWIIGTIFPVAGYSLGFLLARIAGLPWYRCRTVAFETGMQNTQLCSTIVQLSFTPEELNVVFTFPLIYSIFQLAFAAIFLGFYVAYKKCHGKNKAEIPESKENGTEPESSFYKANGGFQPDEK
Procedure: as §1

[5] = target: OAT3 (Homo sapiens, UniProt Q8TCC7); assay: Drug transporter inhibition (SLC family); type: in vitro ADME; details: transporter-overexpressing cell lines, read-out: Drug transporters inhibition OAT3
Chain of OAT3 (Q8TCC7 whole entry): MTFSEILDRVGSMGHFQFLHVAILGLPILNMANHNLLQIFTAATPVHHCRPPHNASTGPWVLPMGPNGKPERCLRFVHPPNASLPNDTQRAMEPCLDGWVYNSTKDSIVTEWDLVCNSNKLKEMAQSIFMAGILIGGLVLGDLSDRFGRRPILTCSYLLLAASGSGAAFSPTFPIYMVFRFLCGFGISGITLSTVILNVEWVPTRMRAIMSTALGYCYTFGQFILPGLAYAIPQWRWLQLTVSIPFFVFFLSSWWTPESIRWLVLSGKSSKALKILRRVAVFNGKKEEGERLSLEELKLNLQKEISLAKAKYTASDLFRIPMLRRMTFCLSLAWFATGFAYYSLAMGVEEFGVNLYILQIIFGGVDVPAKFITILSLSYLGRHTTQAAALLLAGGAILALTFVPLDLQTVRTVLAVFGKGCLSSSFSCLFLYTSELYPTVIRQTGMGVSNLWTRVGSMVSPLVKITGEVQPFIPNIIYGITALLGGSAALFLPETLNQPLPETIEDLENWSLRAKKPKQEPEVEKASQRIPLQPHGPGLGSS
Procedure: as §1

[6] = target: OCT1 (Homo sapiens, UniProt O15245); assay: Drug transporter inhibition (SLC family); type: in vitro ADME; details: transporter-overexpressing cell lines, read-out: Drug transporters inhibition OCT1
Chain of OCT1 (O15245 whole entry): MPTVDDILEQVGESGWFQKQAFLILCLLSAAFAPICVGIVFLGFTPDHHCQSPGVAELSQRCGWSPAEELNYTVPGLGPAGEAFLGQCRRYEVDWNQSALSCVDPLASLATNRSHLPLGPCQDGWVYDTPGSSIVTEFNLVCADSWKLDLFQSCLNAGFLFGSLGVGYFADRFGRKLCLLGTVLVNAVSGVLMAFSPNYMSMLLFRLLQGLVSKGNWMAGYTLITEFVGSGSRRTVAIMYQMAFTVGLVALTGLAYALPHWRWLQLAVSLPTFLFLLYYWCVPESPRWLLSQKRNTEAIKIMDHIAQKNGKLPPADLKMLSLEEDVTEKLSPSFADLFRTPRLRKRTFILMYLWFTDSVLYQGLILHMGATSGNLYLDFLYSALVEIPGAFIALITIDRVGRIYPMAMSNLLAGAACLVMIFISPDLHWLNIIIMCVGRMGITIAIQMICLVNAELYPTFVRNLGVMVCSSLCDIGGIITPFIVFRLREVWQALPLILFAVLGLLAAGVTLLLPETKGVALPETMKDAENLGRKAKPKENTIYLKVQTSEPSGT
Procedure: as §1

[7] = target: OAT1 (Homo sapiens, UniProt Q4U2R8); assay: Drug transporter inhibition (SLC family); type: in vitro ADME; details: transporter-overexpressing cell lines, read-out: Drug transporters inhibition OAT1
Chain of OAT1 (Q4U2R8 whole entry): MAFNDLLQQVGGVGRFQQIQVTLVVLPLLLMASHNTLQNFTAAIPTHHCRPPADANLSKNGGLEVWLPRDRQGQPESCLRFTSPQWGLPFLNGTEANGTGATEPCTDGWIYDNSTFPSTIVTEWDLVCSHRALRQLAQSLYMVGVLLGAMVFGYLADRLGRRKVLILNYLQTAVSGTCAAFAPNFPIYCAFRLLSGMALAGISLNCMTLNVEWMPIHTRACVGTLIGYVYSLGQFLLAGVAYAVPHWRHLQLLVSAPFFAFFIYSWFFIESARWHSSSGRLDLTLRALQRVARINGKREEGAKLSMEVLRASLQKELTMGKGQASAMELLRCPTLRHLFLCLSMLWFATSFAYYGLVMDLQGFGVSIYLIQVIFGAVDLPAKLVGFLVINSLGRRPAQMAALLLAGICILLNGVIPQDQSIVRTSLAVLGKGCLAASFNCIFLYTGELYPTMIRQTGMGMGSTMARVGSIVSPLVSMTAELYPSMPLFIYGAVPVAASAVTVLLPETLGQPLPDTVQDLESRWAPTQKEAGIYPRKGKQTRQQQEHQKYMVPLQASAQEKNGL
Procedure: as §1

[8] = target: OCT2 (Homo sapiens, UniProt O15244); assay: Drug transporter inhibition (SLC family); type: in vitro ADME; details: transporter-overexpressing cell lines, read-out: Drug transporters inhibition OCT2
Procedure: as §1

[9] = target: NTCP (Homo sapiens, UniProt Q14973); assay: Drug transporter inhibition (SLC family); type: in vitro ADME; details: read-out: Drug transporters inhibition NTCP
Chain of NTCP (Q14973 whole entry): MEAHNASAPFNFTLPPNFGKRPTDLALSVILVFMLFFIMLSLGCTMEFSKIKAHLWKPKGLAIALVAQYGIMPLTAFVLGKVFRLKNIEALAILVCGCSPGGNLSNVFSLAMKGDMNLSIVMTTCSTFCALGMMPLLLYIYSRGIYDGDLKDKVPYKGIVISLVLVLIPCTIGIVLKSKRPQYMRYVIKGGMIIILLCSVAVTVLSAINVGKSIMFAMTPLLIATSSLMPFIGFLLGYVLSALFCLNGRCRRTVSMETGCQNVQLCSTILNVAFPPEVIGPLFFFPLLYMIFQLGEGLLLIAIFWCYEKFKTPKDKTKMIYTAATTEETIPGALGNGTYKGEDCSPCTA
Procedure: as §1

[10] = target: OATP1B1 (Homo sapiens, UniProt Q9Y6L6); assay: Drug transporter inhibition (SLC family); type: in vitro ADME; details: transporter-overexpressing cell lines, read-out: Drug transporters inhibition OATP1B1
Procedure: as §1

[11] = target: T1, hERG (Homo sapiens, UniProt Q12809); assay: hERG automated patch-clamp in hERG-CHO cells; type: cell-based
T1 construct: host or cells: CHO (hERG-CHO overexpressing cells)
T1 sequence (Q12809 whole entry): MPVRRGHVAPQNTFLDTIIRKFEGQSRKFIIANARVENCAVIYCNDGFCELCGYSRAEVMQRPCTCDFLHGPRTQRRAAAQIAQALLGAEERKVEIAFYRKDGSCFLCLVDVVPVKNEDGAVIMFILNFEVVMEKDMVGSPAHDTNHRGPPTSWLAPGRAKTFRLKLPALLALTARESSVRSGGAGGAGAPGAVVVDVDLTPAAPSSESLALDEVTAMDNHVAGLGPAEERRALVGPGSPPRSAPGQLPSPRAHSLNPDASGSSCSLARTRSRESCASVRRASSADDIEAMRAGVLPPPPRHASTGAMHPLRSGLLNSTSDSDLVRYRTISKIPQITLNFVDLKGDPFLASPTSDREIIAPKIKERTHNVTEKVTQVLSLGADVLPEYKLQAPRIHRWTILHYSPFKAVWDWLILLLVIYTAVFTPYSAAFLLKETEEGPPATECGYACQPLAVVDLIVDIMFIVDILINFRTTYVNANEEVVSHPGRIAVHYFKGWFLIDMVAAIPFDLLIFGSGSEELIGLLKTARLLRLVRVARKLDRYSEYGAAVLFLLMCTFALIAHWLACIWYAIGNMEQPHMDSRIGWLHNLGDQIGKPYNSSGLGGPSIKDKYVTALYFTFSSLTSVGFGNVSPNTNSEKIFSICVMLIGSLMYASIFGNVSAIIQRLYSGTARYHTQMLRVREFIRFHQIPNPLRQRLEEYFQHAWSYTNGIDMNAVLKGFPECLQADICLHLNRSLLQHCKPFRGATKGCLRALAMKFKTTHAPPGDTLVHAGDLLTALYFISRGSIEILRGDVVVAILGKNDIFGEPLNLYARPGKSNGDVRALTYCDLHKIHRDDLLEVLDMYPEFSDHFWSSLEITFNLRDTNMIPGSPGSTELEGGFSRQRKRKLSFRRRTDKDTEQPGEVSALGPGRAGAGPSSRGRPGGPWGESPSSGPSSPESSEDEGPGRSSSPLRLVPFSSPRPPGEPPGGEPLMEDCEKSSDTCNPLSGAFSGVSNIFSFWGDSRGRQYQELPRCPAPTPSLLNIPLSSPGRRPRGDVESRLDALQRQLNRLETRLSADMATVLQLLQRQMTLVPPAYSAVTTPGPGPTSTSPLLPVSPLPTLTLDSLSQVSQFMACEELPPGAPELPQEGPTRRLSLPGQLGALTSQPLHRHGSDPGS
Procedure: Cardiotoxicity analysis was performed by Eurofins Cerep (Poitiers, France) according to [73]. hERG-CHO overexpressing cells were used to perform automated patch-clamping. Compound 7i was evaluated at 0.1, 1 and 10 µM. Activities were expressed as % inhibition of tail current.

[12] = target: MRP3 (Homo sapiens, UniProt O15438); assay: Drug transporter inhibition (ABC family); type: in vitro ADME; details: transporter-overexpressing cell lines, read-out: Drug transporters inhibition MRP3
Procedure: as §1

[13] = target: BCRP (Homo sapiens, UniProt Q9UNQ0); assay: Drug transporter inhibition (ABC family); type: in vitro ADME; details: transporter-overexpressing cell lines, read-out: Drug transporters inhibition BCRP
Procedure: as §1

[14] = target: T2, P-gp (Homo sapiens, UniProt P08183); assay: Drug transporter inhibition (ABC family); type: in vitro ADME; details: transporter-overexpressing cell lines, read-out: Drug transporters inhibition P-gp
T2 construct: in the Caco-2 cell line with and without verapamil; host or cells: Caco-2
Procedure: as §1

[15] = target: MRP2 (Homo sapiens, UniProt Q92887); assay: Drug transporter inhibition (ABC family); type: in vitro ADME; details: transporter-overexpressing cell lines, read-out: Drug transporters inhibition MRP2
Procedure: as §1

[16] = target: MRP1 (Homo sapiens, UniProt P33527); assay: Drug transporter inhibition (ABC family); type: in vitro ADME; details: transporter-overexpressing cell lines, read-out: Drug transporters inhibition MRP1
Chain of MRP1 (P33527 whole entry): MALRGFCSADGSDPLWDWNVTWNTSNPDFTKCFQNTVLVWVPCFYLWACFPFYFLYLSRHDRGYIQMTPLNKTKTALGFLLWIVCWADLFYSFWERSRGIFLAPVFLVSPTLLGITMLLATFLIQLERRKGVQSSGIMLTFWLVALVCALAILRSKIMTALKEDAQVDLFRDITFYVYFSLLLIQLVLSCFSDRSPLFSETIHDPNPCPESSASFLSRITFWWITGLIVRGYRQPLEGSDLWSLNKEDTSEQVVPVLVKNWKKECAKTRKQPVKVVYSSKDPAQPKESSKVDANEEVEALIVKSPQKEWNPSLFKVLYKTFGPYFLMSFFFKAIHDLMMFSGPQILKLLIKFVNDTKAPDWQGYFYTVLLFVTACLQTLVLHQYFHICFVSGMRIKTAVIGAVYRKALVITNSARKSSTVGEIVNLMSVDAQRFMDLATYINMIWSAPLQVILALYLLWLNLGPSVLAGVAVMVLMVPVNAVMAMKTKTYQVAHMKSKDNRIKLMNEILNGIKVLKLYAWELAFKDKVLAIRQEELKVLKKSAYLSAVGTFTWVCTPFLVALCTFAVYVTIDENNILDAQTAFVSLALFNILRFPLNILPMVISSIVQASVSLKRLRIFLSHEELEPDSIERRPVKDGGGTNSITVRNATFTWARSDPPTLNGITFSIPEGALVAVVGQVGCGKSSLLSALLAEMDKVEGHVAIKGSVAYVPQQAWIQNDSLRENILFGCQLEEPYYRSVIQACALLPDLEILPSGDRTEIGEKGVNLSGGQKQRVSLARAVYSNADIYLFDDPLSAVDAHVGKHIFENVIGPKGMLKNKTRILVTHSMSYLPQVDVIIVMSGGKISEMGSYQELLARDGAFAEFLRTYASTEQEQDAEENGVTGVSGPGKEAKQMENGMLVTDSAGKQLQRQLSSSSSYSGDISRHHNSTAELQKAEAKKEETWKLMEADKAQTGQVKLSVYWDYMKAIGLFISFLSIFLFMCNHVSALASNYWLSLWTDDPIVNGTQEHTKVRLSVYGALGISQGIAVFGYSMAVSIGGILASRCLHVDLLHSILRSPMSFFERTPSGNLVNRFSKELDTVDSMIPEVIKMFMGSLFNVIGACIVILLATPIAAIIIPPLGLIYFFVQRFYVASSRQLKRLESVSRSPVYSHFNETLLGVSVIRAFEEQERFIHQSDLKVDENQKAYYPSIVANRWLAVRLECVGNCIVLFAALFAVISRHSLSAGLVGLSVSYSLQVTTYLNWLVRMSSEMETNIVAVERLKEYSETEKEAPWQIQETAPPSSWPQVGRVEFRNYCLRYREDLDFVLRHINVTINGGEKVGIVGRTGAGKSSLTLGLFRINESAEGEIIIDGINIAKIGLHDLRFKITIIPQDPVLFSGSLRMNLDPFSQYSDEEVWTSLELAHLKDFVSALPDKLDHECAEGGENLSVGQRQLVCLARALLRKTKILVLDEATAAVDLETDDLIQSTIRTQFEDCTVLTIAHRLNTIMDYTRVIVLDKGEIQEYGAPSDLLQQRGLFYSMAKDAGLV
Procedure: as §1

[17] = PBS pH 7.4, pH 7.4, aqueous buffer, read-out: Solubility PBS pH7.4
[18] = simulated gastric fluid (SGF), simulated gastric fluid, read-out: Solubility SGF
[19] = simulated intestinal fluid (SIF), fassgf or other biorelevant, read-out: Solubility SIF

Compound	Compound Remaining (1 h, %) [1]	half-life at 10 µM [1]	microsomal CLint at 10 µM [1]	solubility [2, 17]	solubility [2, 18]	solubility [2, 19]	inhibition at 10 µM [3]	inhibition at 10 µM [4]	inhibition at 10 µM [5]	inhibition at 10 µM [6]	inhibition at 10 µM [7]	inhibition at 10 µM [8]	inhibition at 10 µM [9]	inhibition at 10 µM [10]	inhibition at 10 µM [12]	inhibition at 10 µM [13]	inhibition at 10 µM [14]	inhibition at 10 µM [15]	inhibition at 10 µM [16]	also measured
O=C(NCCCNCc1ccccc1)c1ccc(Cl)cc1 [compound 7i-deMe]	80%	> 3 h	< 115 µL/min/mg	187 µM (≈ 56.6 µg/mL)	197 µM (≈ 59.7 µg/mL)	196 µM (≈ 59.3 µg/mL)	19.1%	5%	18.7%	64.6%	-6.2%	85.8%	8.7%	8.6%	-0.6%	-3%	1%	-11.5%	-3.4%	IC50 ([11]; read-out: hERG IC50): 1200 nM
CN(CCCNC(=O)c1ccc(Cl)cc1)Cc1ccccc1 [compound 7i]	54%	> 1 h	< 115 µL/min/mg	185 µM (≈ 58.6 µg/mL)	193 µM (≈ 61.1 µg/mL)	188 µM (≈ 59.6 µg/mL)	23.1%	5.3%	34.3%	41.2%	-9.6%	49.4%	-1.7%	12%	-0.3%	8.3%	10.6%	-18.8%	1.9%	IC50 ([11]; Table 4, read-out: hERG inhibition IC50): 1000 nM
